Source: patent US4816447A, “Anti-viral guanine compounds” (priority 1984, dated 1989)
≈ marks a conversion by molar mass, not a printed value.

What was measured:
[1] = Comparative solubilities in pH 7.2 buffer at 25°; type: physicochemical; details: aqueous buffer; pH 7.2 phosphate buffer, 25°
Method: Comparative Solubilities in pH 7.2 Buffer at 25°
Solubilities were determined by suspending an excess amount of the compound in approximately 0.15 molar phosphate buffer (pH 7.2) and shaking overnight in a water bath at 25° to give a saturated solution. The concentration of the compound in the filtered solution was calculated on the basis of spectrophotometric measurements, i.e. comparison of the ultraviolet absorbance at the λmax for the saturated solution with the absorbance value observed for a known concentration of the compound.

[2] = test system: guanosine monophosphate kinase and extract of HSV1-infected HeLa cells; type: biochemical; details: gmp kinase, 4 h
Method: To the rest of the incubation mixtures were now added 0.04 units of guanosine monophosphate kinase and 20 μl of an extract of HSV1-infectedHeLa cells [The cells were infected with the virus at a multiplicity of 10 and harvested 8 hours later; they were suspended in a solution containing 0.35M KH2 PO4, pH 7.5, 0.5 mM dithiothreitol, 0.2% polyoxyethylene(9)octylphenol (Nonidet P-40), 14% glycerol at 50 mg/ml and after 30 minutes at 4° were centrifuged at […]; the supernatant liquid was the crude extract.] Incubation was continued at 30° for 4 more hours, after which samples were analyzed by HPLC and the amount of the triphosphate derivatives of each compound determined by integration of the area under the respective chromatographic peak.

[3] = test system: Herpes simplex virus type I (HSV-1), strain Schooler; experiment: Treatment of Herpes simplex virus infection in mice, intraperitoneal HSV-1, subcutaneous treatment (Table II); type: in vivo, HSV-1; ICR/Ha mice; details: for Percent Survival: at 15 days
Herpes simplex virus = experiment: Plaque inhibition, Herpes simplex virus on MRC5 cells (Table V); type: cell-based, Herpes simplex virus; MRC5 (human diploid lung) cells; details: MRC5, read-out: ED50, concentration required for 50% plaque inhibition
[4] = test system: human cytomegalovirus, strain AD169; experiment: Plaque inhibition, cytomegalovirus on MRC5 cells (Table V); type: cell-based, human cytomegalovirus; MRC5 (human diploid lung) cells; details: Human betaherpesvirus 5, AD169, MRC5, read-out: ED50, concentration required for 50% plaque inhibition
[5] = test system: Varicella-Zoster virus, strain KMcC; experiment: Plaque inhibition, Varicella Zoster virus on MRC5 cells (Table V); type: cell-based, Varicella-Zoster virus; MRC5 (human diploid lung) cells; details: Human alphaherpesvirus 3, MRC5, read-out: ED50, concentration required for 50% plaque inhibition
Vaccinia = experiment: microbe, parasite or virus in culture; type: cell-based, vaccinia; MRC5 (human diploid lung) cells; details: Orthopoxvirus vaccinia, MRC5, read-out: ED50, concentration required for 50% plaque inhibition
[6] = test system: Herpes simplex virus type 1; experiment: Intraperitoneal Herpes simplex type 1 infection in mice, oral treatment (Table XI); type: in vivo, Herpes simplex type 1; ICR/Ha mice; details: for Percent Survival: at 13 days
From the text: ICR/Ha mice were infected as described in Example 36. […] These animals served as toxicity controls.

[7] = test system: Herpes simplex virus type 2 (Strain Curtis); experiment: Vaginal Herpes simplex virus type 2 infection in mice, oral treatment (Table XII); type: in vivo, Herpes simplex virus type 2; ICR/Ha female mice; details: for Percent Survival: at 19 days
Method: Groups of 10 animals were treated twice daily for ten days by oral gavage using acycloquanosine or the compound of formula II at final daily doses of 50, 12.5, 3.1, 0.8 or 0.2 mg/kg starting immediately following infection. The average number of days to infection and the average days of survival were determined for each group and compared to an infected, placebo-treated group.

[8] = test system: HSV-1 wild type Strain 17; experiment: Drug sensitivity of HSV-1 wild type Strain 17; details: HSV-1 wild type Strain 17
Recombinant 6-26 = experiment: Drug sensitivity of HSV-1/HSV-2 intertypic Recombinant 6-26; details: Recombinant 6-26
Recombinant 6-30 = experiment: Drug sensitivity of HSV-1/HSV-2 intertypic Recombinant 6-30; details: Recombinant 6-30
Recombinant 6-34 = experiment: Drug sensitivity of HSV-1/HSV-2 intertypic Recombinant 6-34; details: Recombinant 6-34
Recombinant 6-19 = experiment: Drug sensitivity of HSV-1/HSV-2 intertypic Recombinant 6-19; details: Recombinant 6-19

Nc1nc2c(ncn2COCCO)c(=O)[nH]1 [Acycloguanosine, 9-(2-hydroxyethoxymethyl)guanine, reference compound]
solubility [1]: 1300 to 1500 µg/mL (≈ 5770 to 6660 µM) | converted to the triphosphate [2]: 31% | Avg. Survival Time ([3]; 3.1 mg/kg/day s.c.): 6.4 days | Percent Survival ([3]; 3.1 mg/kg/day s.c.): 6% | Avg. Survival Time ([3]; 12.5 mg/kg/day s.c.): 6.2 days | Percent Survival ([3]; 12.5 mg/kg/day s.c.): 6% | Avg. Survival Time ([3]; 50 mg/kg/day s.c.): 7.7 days | Percent Survival ([3]; 50 mg/kg/day s.c.): 0% | EC50 (Herpes simplex virus): 0.2 to 0.4 µg/mL (≈ 0.888 to 1.78 µM) | EC50 [4]: 25 µg/mL (≈ 111 µM) | EC50 [5]: 3 to 6 µg/mL (≈ 13.3 to 26.6 µM) | EC50 (Vaccinia): > 100 µg/mL | Avg. Survival Time ([6]; 3.1 mg/kg/day oral): 6.3 days | Percent Survival ([6]; 3.1 mg/kg/day oral): 0% | Avg. Survival Time ([6]; 12.5 mg/kg/day oral): 6.6 days | Percent Survival ([6]; 12.5 mg/kg/day oral): 0% | Avg. Survival Time ([6]; 50 mg/kg/day oral): 8.2 days | Percent Survival ([6]; 50 mg/kg/day oral): 20% | Avg. Survival Time ([6]; 100 mg/kg/day oral): 11.4 days | Percent Survival ([6]; 100 mg/kg/day oral): 60% | survival vs placebo ([6]; all treated groups): none of the acycloquanosine-treated groups showed enhanced survival | extension of survival time vs placebo ([6]; only at 100 and 50 mg/kg daily): statistically significant extension of survival time | Avg. Survival Time ([7]; 0.2 mg/kg/day oral): 8.8 days | Percent Survival ([7]; 0.2 mg/kg/day oral): 0% | Percent Survival ([7]; 0.8 mg/kg/day oral): 10% | Percent Survival ([7]; 3.1 mg/kg/day oral): 20% | Avg. Survival Time ([7]; 12.5 mg/kg/day oral): 14.1 days | Percent Survival ([7]; 12.5 mg/kg/day oral): 40% | number of days to infection vs placebo ([7]; 50 mg/kg and 12.5 mg/kg): statistically significant increases in the number of days to infection | Avg. Survival Time ([7]; 50 mg/kg/day oral): 17.6 days | Percent Survival ([7]; 50 mg/kg/day oral): 60% | survival time vs placebo ([7]; 50 and 12.5 mg/kg): similarly effective | survival vs placebo ([7]; only 50 mg/kg): statistically significant enhanced survival | Sensitivity (S) or Resistance (R) (HSV-2 TS6; HSV-2 TS6): S | sensitivity of HSV-2 Ts6 (HSV-2 TS6; HSV-2 Ts6): sensitive | Sensitivity (S) or Resistance (R) [8]: S | Sensitivity (S) or Resistance (R) (Recombinant 6-26): S | Sensitivity (S) or Resistance (R) (Recombinant 6-30): S | Sensitivity (S) or Resistance (R) (Recombinant 6-34): R | Sensitivity (S) or Resistance (R) (Recombinant 6-19): R
